Experimental data from patent US11945822B2, “Pyrazolo-triazine and/or pyrazolo-pxrimidine derivatives as selective inhibitor of cyclin dependent kinase” (QURIENT CO., LTD., priority 2018, dated 2024).

These compounds were tested against T1, CDK1/Cyclin B (Homo sapiens, UniProt P06493) (assay: Enzymatic assay for CDK1 (FRET based LANCE Ultra kinase assay)). Conditions: read-out: CDK1 enzymatic activity (IC50 range).
T1 construct: purchased Invitrogen PR4768C
Format: biochemical
Outline: (§1)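 Each CDK complex ([…]) phosphorylated 68 nM ULight-MBP peptide with ATP at Km for 60 min at 23° C., against 8 compound doses (4-fold dilutions). EDTA/Eu-anti-phospho-MBP detection, 60 min, then TR-FRET emission at 615 and 665 nm.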

T1 sequence (P06493 whole entry): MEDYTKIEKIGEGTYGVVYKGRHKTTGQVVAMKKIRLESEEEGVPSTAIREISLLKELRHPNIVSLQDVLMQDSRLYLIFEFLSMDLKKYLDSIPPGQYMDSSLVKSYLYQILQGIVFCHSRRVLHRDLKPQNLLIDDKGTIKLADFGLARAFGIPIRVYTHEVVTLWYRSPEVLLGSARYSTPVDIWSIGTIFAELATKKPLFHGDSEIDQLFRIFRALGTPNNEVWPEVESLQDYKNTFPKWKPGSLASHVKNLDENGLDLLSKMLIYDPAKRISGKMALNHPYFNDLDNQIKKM
T1 sequence (P14635 whole entry partner): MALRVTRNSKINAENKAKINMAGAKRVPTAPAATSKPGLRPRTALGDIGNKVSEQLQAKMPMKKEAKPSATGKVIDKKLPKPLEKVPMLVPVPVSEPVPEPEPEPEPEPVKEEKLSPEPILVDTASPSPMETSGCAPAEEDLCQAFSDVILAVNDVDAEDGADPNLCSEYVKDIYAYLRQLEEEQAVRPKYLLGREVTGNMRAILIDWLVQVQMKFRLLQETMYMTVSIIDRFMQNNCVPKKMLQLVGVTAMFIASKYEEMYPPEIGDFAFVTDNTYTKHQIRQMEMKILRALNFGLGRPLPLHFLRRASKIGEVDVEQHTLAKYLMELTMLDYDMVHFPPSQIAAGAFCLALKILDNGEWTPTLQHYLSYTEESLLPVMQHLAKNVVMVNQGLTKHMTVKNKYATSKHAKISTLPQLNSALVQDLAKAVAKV

| IC50 [µM] | SMILES |
| --- | --- |
| > 1 | CC(C)c1cnn2c(N[C@@H](C)c3ccccc3-n3cc4ccccc4n3)nc(N3CCC(N)CC3)nc12 [Compound 183] |
| > 1 | CC(C)c1cnn2c(NCc3c(Cl)cccc3-c3ccc4ccccc4n3)nc(N3CCC(N)CC3)nc12 [Compound 194] |
| > 1 | CC(C)c1cnn2c(NCc3ccccc3-c3ccc4ccccc4n3)nc(N3CCC(O)(CN)CC3)nc12 [Compound 219] |
| > 1 | CC(C)c1cnn2c(NCc3ccccc3-c3ccc4ccccc4n3)nc(NC[C@H]3CCNC[C@@H]3O)nc12 [Compound 225] |

Each compound was assayed on MV4-11 (assay: Cellular MV4-11 viability assay (CellTiter-Glo, 72 hours)). Conditions: Homo sapiens.
Format: cell-based
Outline: (§2)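 CellTiter-Glo luminescence read in duplicate after 72 h compound exposure (37 °C, 5% CO2); DMSO-only control, final DMSO under 0.1%.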

| IC50 [µM] | SMILES |
| --- | --- |
| < 1 | CC(C)c1cnn2c(N[C@@H](C)c3ccccc3-n3cc4ccccc4n3)nc(N3CCC(N)CC3)nc12 [Compound 183] |
| < 1 | CC(C)c1cnn2c(NCc3c(Cl)cccc3-c3ccc4ccccc4n3)nc(N3CCC(N)CC3)nc12 [Compound 194] |
| < 1 | CC(C)c1cnn2c(NCc3ccccc3-c3ccc4ccccc4n3)nc(N3CCC(O)(CN)CC3)nc12 [Compound 219] |
| < 1 | CC(C)c1cnn2c(NCc3ccccc3-c3ccc4ccccc4n3)nc(NC[C@H]3CCNC[C@@H]3O)nc12 [Compound 225] |

These compounds were tested on HCT116 (assay: Cellular HCT116 viability assay (CellTiter-Glo, 72 hours)). Conditions: Homo sapiens, HCT-116.
Format: cell-based
Outline: as §2

| IC50 [µM] | SMILES |
| --- | --- |
| < 1 | CC(C)c1cnn2c(N[C@@H](C)c3ccccc3-n3cc4ccccc4n3)nc(N3CCC(N)CC3)nc12 [Compound 183] |
| < 1 | CC(C)c1cnn2c(NCc3c(Cl)cccc3-c3ccc4ccccc4n3)nc(N3CCC(N)CC3)nc12 [Compound 194] |
| < 1 | CC(C)c1cnn2c(NCc3ccccc3-c3ccc4ccccc4n3)nc(N3CCC(O)(CN)CC3)nc12 [Compound 219] |
| < 1 | CC(C)c1cnn2c(NCc3ccccc3-c3ccc4ccccc4n3)nc(NC[C@H]3CCNC[C@@H]3O)nc12 [Compound 225] |

What follows are compounds tested against T2, CDK5/p25 (Homo sapiens, UniProt Q00535) (assay: Enzymatic assay for CDK5 (FRET based LANCE Ultra kinase assay)). Conditions: read-out: CDK5 enzymatic activity (IC50 range).
T2 construct: purchased Invitrogen PR8543B
Format: biochemical
Outline: as §1

T2 sequence (Q00535 whole entry): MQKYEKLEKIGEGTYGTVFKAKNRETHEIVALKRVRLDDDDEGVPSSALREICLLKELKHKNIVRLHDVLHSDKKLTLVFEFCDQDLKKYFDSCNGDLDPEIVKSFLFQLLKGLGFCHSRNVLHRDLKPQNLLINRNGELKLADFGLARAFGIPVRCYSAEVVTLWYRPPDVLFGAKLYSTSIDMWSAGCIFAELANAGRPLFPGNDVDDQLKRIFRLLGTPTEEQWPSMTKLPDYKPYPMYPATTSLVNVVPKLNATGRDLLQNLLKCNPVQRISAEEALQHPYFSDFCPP
T2 sequence (Q15078 99-307 partner limits assumed): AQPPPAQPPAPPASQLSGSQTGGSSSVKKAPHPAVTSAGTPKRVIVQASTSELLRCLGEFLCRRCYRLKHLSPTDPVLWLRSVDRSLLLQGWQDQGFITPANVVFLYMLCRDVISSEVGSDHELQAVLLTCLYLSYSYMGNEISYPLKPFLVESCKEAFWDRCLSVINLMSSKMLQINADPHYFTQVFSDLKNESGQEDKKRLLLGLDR

| IC50 [µM] | SMILES |
| --- | --- |
| > 1 | CC(C)c1cnn2c(N[C@@H](C)c3ccccc3-n3cc4ccccc4n3)nc(N3CCC(N)CC3)nc12 [Compound 183] |
| > 1 | CC(C)c1cnn2c(NCc3c(Cl)cccc3-c3ccc4ccccc4n3)nc(N3CCC(N)CC3)nc12 [Compound 194] |
| > 1 | CC(C)c1cnn2c(NCc3ccccc3-c3ccc4ccccc4n3)nc(N3CCC(O)(CN)CC3)nc12 [Compound 219] |
| 0.1 to 1 | CC(C)c1cnn2c(NCc3ccccc3-c3ccc4ccccc4n3)nc(NC[C@H]3CCNC[C@@H]3O)nc12 [Compound 225] |

The compounds below were run against T3, CDK2/Cyclin A (Homo sapiens, UniProt P24941) (assay: Enzymatic assay for CDK2 (FRET based LANCE Ultra kinase assay)). Conditions: read-out: CDK2 enzymatic activity (IC50 range).
T3 construct: purchased Invitrogen PV6290
Format: biochemical
Outline: as §1

| IC50 [µM] | SMILES |
| --- | --- |
| > 1 | CC(C)c1cnn2c(N[C@@H](C)c3ccccc3-n3cc4ccccc4n3)nc(N3CCC(N)CC3)nc12 [Compound 183] |
| > 1 | CC(C)c1cnn2c(NCc3c(Cl)cccc3-c3ccc4ccccc4n3)nc(N3CCC(N)CC3)nc12 [Compound 194] |
| > 1 | CC(C)c1cnn2c(NCc3ccccc3-c3ccc4ccccc4n3)nc(N3CCC(O)(CN)CC3)nc12 [Compound 219] |
| 0.1 to 1 | CC(C)c1cnn2c(NCc3ccccc3-c3ccc4ccccc4n3)nc(NC[C@H]3CCNC[C@@H]3O)nc12 [Compound 225] |

The compounds below were run on OVCAR-3 (assay: Cellular OVCAR-3 viability assay (CellTiter-Glo, 72 hours)). Conditions: Homo sapiens.
Format: cell-based
From the text: Human T-cell acute lymphoblastic leukemia cell line, MOLT-4 (ATCC, Cat #CRL-1582), Human multiple myeloma cell line, RPMI-8226 (Invitrogen, Cat #22400-089) and MM.1S (ATCC, Cat #CRL-2974), NSCLC (Non-small cell lung cancer) cell line H460 (ATCC, Cat #HTB-177), Human colon colorectal carcinoma cell line HCT116 (ATCC, Cat #CCL-247), Human acute monocytic leukemia cell line MV4-11 (ATCC, Cat #CRL-9591), OVCAR-3 (ATCC, Cat #HTB-161) and A2780 (ECACC, Cat #93112519) were obtained from ATCC. Cells were grown in RPMI-1640 media (Invitrogen, Cat #22400-089) supplemented with 10% FBS (Invitrogen, Cat #10099141) and 1% penicillin/streptomycin (Invitrogen, Cat #15070063) and cultured at 37° C., 5% CO2 in a humidified chamber. All cell lines were routinely tested for mycoplasma.
The effect of the CDK7 inhibitor to inhibit the growth of target cancer cells was evaluated through the 72 hours time period of viability assay. Briefly, the candidate cell line ware plated in 96 well plate at the following density of cells respectively. 1×10^4 cells/well for MOLT-4, RPMI-8226, MV4-11 and MM.1S, 5×10^3 for H460, HCT116 and OVCAR-3 and IX 10^3 for A2780. After 24 hours, the cells were treated with various concentrations of the compound (ranging from 0.0015 uM to 10 uM). DMSO solvent without compound served as a control and final DMSO concentration less than 0.1%. After 72 hours of incubation at 37° C., 5% CO2 incubator, cells were analyzed for the viability using the CellTiter-Glo Luminescent Cell Viability Assay (Promega, Cat #G7570). All viability assays were performed in duplicate and Luminescence was read using an Envision (Perkin Elmer, USA). Data was analyzed using XLfit software.

| IC50 [µM] | SMILES |
| --- | --- |
| 1 to 10 | CC(C)c1cnn2c(N[C@@H](C)c3ccccc3-n3cc4ccccc4n3)nc(N3CCC(N)CC3)nc12 [Compound 183] |
| 1 to 10 | CC(C)c1cnn2c(NCc3c(Cl)cccc3-c3ccc4ccccc4n3)nc(N3CCC(N)CC3)nc12 [Compound 194] |
| 1 to 10 | CC(C)c1cnn2c(NCc3ccccc3-c3ccc4ccccc4n3)nc(N3CCC(O)(CN)CC3)nc12 [Compound 219] |
| ≤ 1 | CC(C)c1cnn2c(NCc3ccccc3-c3ccc4ccccc4n3)nc(NC[C@H]3CCNC[C@@H]3O)nc12 [Compound 225] |

What follows are compounds tested on MM.1S (assay: Cellular MM.1S viability assay (CellTiter-Glo, 72 hours)). Conditions: Homo sapiens, MM1.S.
Format: cell-based
Outline: (§3)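 Compound exposure lasted 72 h at 37° C, 5% CO2, over 0.0015–10 uM, DMSO kept under 0.1%, with dosing 24 h after seeding. Seeding: A2780 1×10^3, OVCAR-3 5×10^3, MM.1S 1×10^4 cells/well in 10% FBS RPMI-1640. Duplicate CellTiter-Glo luminescence readout.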

| IC50 [µM] | SMILES |
| --- | --- |
| ≤ 1 | CC(C)c1cnn2c(N[C@@H](C)c3ccccc3-n3cc4ccccc4n3)nc(N3CCC(N)CC3)nc12 [Compound 183] |
| ≤ 1 | CC(C)c1cnn2c(NCc3c(Cl)cccc3-c3ccc4ccccc4n3)nc(N3CCC(N)CC3)nc12 [Compound 194] |

These compounds were tested on H460 (assay: Cellular H460 viability assay (CellTiter-Glo, 72 hours)). Conditions: Homo sapiens, NCI-H460.
Format: cell-based
Outline: as §2

| IC50 [µM] | SMILES |
| --- | --- |
| < 1 | CC(C)c1cnn2c(N[C@@H](C)c3ccccc3-n3cc4ccccc4n3)nc(N3CCC(N)CC3)nc12 [Compound 183] |
| < 1 | CC(C)c1cnn2c(NCc3c(Cl)cccc3-c3ccc4ccccc4n3)nc(N3CCC(N)CC3)nc12 [Compound 194] |
| < 1 | CC(C)c1cnn2c(NCc3ccccc3-c3ccc4ccccc4n3)nc(N3CCC(O)(CN)CC3)nc12 [Compound 219] |
| < 1 | CC(C)c1cnn2c(NCc3ccccc3-c3ccc4ccccc4n3)nc(NC[C@H]3CCNC[C@@H]3O)nc12 [Compound 225] |

These compounds were tested against T4, CDK7/Cyclin H/MNAT1 (Homo sapiens, UniProt P50613) (assay: Enzymatic assay for CDK7 (FRET based LANCE Ultra kinase assay)). Conditions: CDK7 over CDK1.
T4 construct: purchased Invitrogen PR6749B
Format: biochemical
Outline: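 Inhibition was measured at Km ATP by time-resolved FRET between a Eu anti-phospho antibody and a phosphorylated ULight peptide. The enzyme was the purified CDK7/cyclin complex, and data were curve-fitted.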

T4 sequence (P50613 whole entry): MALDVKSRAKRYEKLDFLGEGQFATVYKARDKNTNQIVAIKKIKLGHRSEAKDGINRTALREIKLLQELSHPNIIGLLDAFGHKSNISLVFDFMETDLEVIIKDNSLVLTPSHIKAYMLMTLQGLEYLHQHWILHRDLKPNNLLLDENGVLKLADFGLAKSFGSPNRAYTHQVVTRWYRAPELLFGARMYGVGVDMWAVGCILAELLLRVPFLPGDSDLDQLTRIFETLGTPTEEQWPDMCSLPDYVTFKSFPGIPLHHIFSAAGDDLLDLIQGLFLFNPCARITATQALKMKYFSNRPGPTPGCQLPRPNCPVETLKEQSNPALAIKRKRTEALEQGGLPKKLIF
T4 sequence (P51946 whole entry partner): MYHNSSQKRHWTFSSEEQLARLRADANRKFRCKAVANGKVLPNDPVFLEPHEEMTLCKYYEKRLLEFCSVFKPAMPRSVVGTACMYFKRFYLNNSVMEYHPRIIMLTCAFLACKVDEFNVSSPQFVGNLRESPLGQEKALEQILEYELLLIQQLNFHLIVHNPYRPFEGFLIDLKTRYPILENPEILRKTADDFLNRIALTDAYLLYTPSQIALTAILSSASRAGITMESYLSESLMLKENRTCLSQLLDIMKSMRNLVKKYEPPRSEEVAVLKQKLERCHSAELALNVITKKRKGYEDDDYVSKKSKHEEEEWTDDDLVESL
T4 sequence (P51948 whole entry partner): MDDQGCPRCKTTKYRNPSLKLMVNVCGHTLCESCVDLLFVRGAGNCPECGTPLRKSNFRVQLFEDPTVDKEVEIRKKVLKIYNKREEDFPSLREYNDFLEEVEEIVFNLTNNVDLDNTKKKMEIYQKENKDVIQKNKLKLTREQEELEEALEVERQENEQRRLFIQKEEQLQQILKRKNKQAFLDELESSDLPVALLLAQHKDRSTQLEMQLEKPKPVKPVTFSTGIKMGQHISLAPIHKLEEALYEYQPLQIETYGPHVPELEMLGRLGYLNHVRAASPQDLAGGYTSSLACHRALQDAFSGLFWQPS

| CDK1/CDK7: Selectivity of CDK7 inhibition over CDK1 inhibition | SMILES |
| --- | --- |
| A (A=greater than 200 fold) | CC(C)c1cnn2c(N[C@@H](C)c3ccccc3-n3cc4ccccc4n3)nc(N3CCC(N)CC3)nc12 [Compound 183] |
| A (A=greater than 200 fold) | CC(C)c1cnn2c(NCc3c(Cl)cccc3-c3ccc4ccccc4n3)nc(N3CCC(N)CC3)nc12 [Compound 194] |
| A (A=greater than 200 fold) | CC(C)c1cnn2c(NCc3ccccc3-c3ccc4ccccc4n3)nc(N3CCC(O)(CN)CC3)nc12 [Compound 219] |
| A (A=greater than 200 fold) | CC(C)c1cnn2c(NCc3ccccc3-c3ccc4ccccc4n3)nc(NC[C@H]3CCNC[C@@H]3O)nc12 [Compound 225] |

Same assay, conditions: CDK7 over CDK2

| CDK2/CDK7: Selectivity of CDK7 inhibition over CDK2 inhibition | SMILES |
| --- | --- |
| A (A=greater than 200 fold) | CC(C)c1cnn2c(N[C@@H](C)c3ccccc3-n3cc4ccccc4n3)nc(N3CCC(N)CC3)nc12 [Compound 183] |
| A (A=greater than 200 fold) | CC(C)c1cnn2c(NCc3c(Cl)cccc3-c3ccc4ccccc4n3)nc(N3CCC(N)CC3)nc12 [Compound 194] |
| A (A=greater than 200 fold) | CC(C)c1cnn2c(NCc3ccccc3-c3ccc4ccccc4n3)nc(N3CCC(O)(CN)CC3)nc12 [Compound 219] |
| A (A=greater than 200 fold) | CC(C)c1cnn2c(NCc3ccccc3-c3ccc4ccccc4n3)nc(NC[C@H]3CCNC[C@@H]3O)nc12 [Compound 225] |

Same assay, conditions: CDK7 over CDK5

| CDK5/CDK7: Selectivity of CDK7 inhibition over CDK5 inhibition | SMILES |
| --- | --- |
| A (A=greater than 200 fold) | CC(C)c1cnn2c(N[C@@H](C)c3ccccc3-n3cc4ccccc4n3)nc(N3CCC(N)CC3)nc12 [Compound 183] |
| A (A=greater than 200 fold) | CC(C)c1cnn2c(NCc3c(Cl)cccc3-c3ccc4ccccc4n3)nc(N3CCC(N)CC3)nc12 [Compound 194] |
| A (A=greater than 200 fold) | CC(C)c1cnn2c(NCc3ccccc3-c3ccc4ccccc4n3)nc(N3CCC(O)(CN)CC3)nc12 [Compound 219] |
| A (A=greater than 200 fold) | CC(C)c1cnn2c(NCc3ccccc3-c3ccc4ccccc4n3)nc(NC[C@H]3CCNC[C@@H]3O)nc12 [Compound 225] |

Same assay, conditions: read-out: CDK7 enzymatic activity (IC50 range)

| IC50 [µM] | SMILES |
| --- | --- |
| < 0.1 | CC(C)c1cnn2c(N[C@@H](C)c3ccccc3-n3cc4ccccc4n3)nc(N3CCC(N)CC3)nc12 [Compound 183] |
| < 0.1 | CC(C)c1cnn2c(NCc3c(Cl)cccc3-c3ccc4ccccc4n3)nc(N3CCC(N)CC3)nc12 [Compound 194] |
| < 0.1 | CC(C)c1cnn2c(NCc3ccccc3-c3ccc4ccccc4n3)nc(N3CCC(O)(CN)CC3)nc12 [Compound 219] |
| < 0.1 | CC(C)c1cnn2c(NCc3ccccc3-c3ccc4ccccc4n3)nc(NC[C@H]3CCNC[C@@H]3O)nc12 [Compound 225] |

Each compound was assayed on A2780 (assay: Cellular A2780 viability assay (CellTiter-Glo, 72 hours)). Conditions: Homo sapiens.
Format: cell-based
Outline: as §3

| IC50 [µM] | SMILES |
| --- | --- |
| ≤ 1 | CC(C)c1cnn2c(N[C@@H](C)c3ccccc3-n3cc4ccccc4n3)nc(N3CCC(N)CC3)nc12 [Compound 183] |
| ≤ 1 | CC(C)c1cnn2c(NCc3c(Cl)cccc3-c3ccc4ccccc4n3)nc(N3CCC(N)CC3)nc12 [Compound 194] |
| ≤ 1 | CC(C)c1cnn2c(NCc3ccccc3-c3ccc4ccccc4n3)nc(N3CCC(O)(CN)CC3)nc12 [Compound 219] |
| ≤ 1 | CC(C)c1cnn2c(NCc3ccccc3-c3ccc4ccccc4n3)nc(NC[C@H]3CCNC[C@@H]3O)nc12 [Compound 225] |
